Experiment [1] relates to wheat Septoria leaf blotch fungus (Zymoseptoria tritici). Kind of experiment: Control test against efflux type multidrug resistant wheat Septoria leaf blotch fungus (growth in PDB, absorbance at 600 nm). The format is cell-based. To be noted: for EC50 value ratio: EC50 against efflux type multidrug resistant strain / EC50 against wild-type strain; for EC50 value, Efflux type multidrug resistant fungus strain: efflux type multidrug resistant fungus strain St 106-6; for EC50 value, Efflux type multidrug resistant fungus strain / EC50 value, Wild-type fungus strain: 18° C., 4 days. The method, then: Control test against Efflux type multidrug resistant wheat Septoria leaf blotch fungus (Zymoseptoria tritici)
Each of the present compound (1) and tolnaftrate was diluted with dimethyl sulfoxide to a prescribed concentration thereof, respectively. Each of the chemical solutions comprising the respective testing compound was dispensed into a titer plate (with 96 wells) in the amount of 1 μL. Thereto was then dispensed 150 μL of a potato dextrose broth (PDB culture media) to which each conidia of wheat Septoria leaf blotch fungus (efflux type multidrug resistant fungus strains) (fungus strain name: St 106-6 as in-house management codes) or wild-type fungus strain, respectively, was inoculated in advance. The plate was cultured at 18° C. for 4 days, thereby allowing each wheat Septoria leaf blotch fungus to undergo proliferation, and the absorbance at 600 nm of each well of the titer plate was then measured to determine a degree of growth of the wheat Septoria leaf blotch fungus (treated group). On the other hand, each of the groups where the wild-type fungus strain or the efflux type multidrug resistant wheat Septoria leaf blotch fungus strain was grown except that the chemical solution was replaced with dimethyl sulfoxide were made non-treated group, respectively, and then the degree of growth thereof was examined (non-treated group).
The efficacy was calculated from the degree of the growth by the below-mentioned “Equation 1”, and then each […] value of the testing compound, respectively against the efflux type multidrug resistant fungus strains and the wild-type fungus strain was calculated. Next, as shown in the below-mentioned “Equation 2”, an EC50 value ratio was calculated by dividing an EC50 value against the efflux type multidrug resistant fungus strains by an EC50 value against the wild-type fungus strain.
(§1) Efficacy=100×(X−Y)/X “Equation 1” • X: Degree of growth of fungus in non-treated group • Y: Degree of growth of fungus in treated group
(§2) EC50 value ratio=EC50 value against efflux type multidrug resistant fungus strain/EC50 value against wild-type fungus strain “Equation 2”

Experiment [2] relates to grapes gray mold fungus (Botrytis cinerea). Kind of experiment: Control test against efflux type multidrug resistant grapes gray mold fungus (growth in PDB, absorbance at 600 nm). To be noted: for EC50 value ratio 1: EC50 against resistant strain 1 / EC50 against wild-type strain; for EC50 value ratio 2: EC50 against resistant strain 2 / EC50 against wild-type strain; for EC50 value ratio 3: EC50 against resistant strain 3 / EC50 against wild-type strain; for EC50 value, Efflux type multidrug resistant fungus strain 1: strain 1: ABC transporter-overexpressing (Bc-56, NITE BP-02676); for EC50 value, Efflux type multidrug resistant fungus strain 1 / EC50 value, Efflux type multidrug resistant fungus strain 2 / EC50 value, Efflux type multidrug resistant fungus strain 3 / EC50 value, Wild-type fungus strain: 18° C., 2 days; for EC50 value, Efflux type multidrug resistant fungus strain 2: strain 2: MFS transporter-overexpressing (Bc-107, NITE BP-02678); for EC50 value, Efflux type multidrug resistant fungus strain 3: strain 3: ABC transporter and MFS transporter-overexpressing (Bc-103, NITE BP-02677). Type of experiment: cell-based. As for the experimental part:
as §1, §2
Control Test Against Efflux Type Multidrug Resistant Grapes Gray Mold Fungus (Botrytis cinerea)
Each of the present compound (1), fludioxonil and tolnaftrate was diluted with dimethyl sulfoxide to a prescribed concentration thereof, respectively. Each of the chemical solutions comprising the respective testing compound was dispensed into a titer plate (with 96 wells) in the amount of 1 μL. Thereto was then dispensed 150 μL of a potato dextrose broth (PDB culture media) to which each conidia of grapes gray mold fungi, that is, efflux type multidrug resistant fungus strains (specifically, efflux type multidrug resistant fungus strain 1: ABC transporter-overexpressing fungus strain (fungus strain name: NITE accession number (NITE BP-02676), in-house management codes (Bc-56)); efflux type multidrug resistant fungus strain 2: MFS transporter-overexpressing fungus strain (fungus strain name: NITE accession number (NITE BP-02678), in-house management codes (Bc-107)); and efflux type multidrug resistant fungus strain 3: ABC transporter and MFS transporter-overexpressing fungus strain (fungus strain name: NITE accession number (NITE BP-02677), in-house management codes (Bc-103))) or wild-type fungus strain, respectively, was inoculated in advance. The plate was cultured at 18° C. for 2 days, thereby allowing each grapes gray mold fungus to undergo proliferation, and the absorbance at 600 nm of each well of the titer plate was then measured to determine a degree of growth of each of the grapes gray mold fungi (treated group). On the other hand, each of the groups where the wild-type fungus strain or the efflux type multidrug resistant grapes gray mold fungus strains was grown except that the chemical solution was replaced with dimethyl sulfoxide were made non-treated group, respectively, and then the degree of the growth thereof was examined (non-treated group).
The efficacy was calculated from the degree of the growth by the below-mentioned “Equation 1”, and then each EC50 value of the testing compound, respectively against the efflux type multidrug resistant fungus strains and the wild-type fungus strain was calculated. Also, an EC50 value ratio was calculated by the above-mentioned “Equation 2”.

Turning to `Cc1nn(C)c(Nc2c(F)cccc2Cl)c1-c1ccc(F)cc1Br` [Present compound (1)], in experiment [1], the EC50 value ratio is 1.1; the “EC50 value, Efflux type multidrug resistant fungus strain” value stood at 0.052 ppm; the “EC50 value, Wild-type fungus strain” value came out at 0.048 ppm. Further, in experiment [2], the “EC50 value ratio 1” value is on record as 1.7; the “EC50 value ratio 2” value is listed as 1.6; the “EC50 value ratio 3” value turned out to be 1.1; the “EC50 value, Efflux type multidrug resistant fungus strain 1” value came to 0.11 ppm. Besides, in experiment [2], the “EC50 value, Efflux type multidrug resistant fungus strain 2” value was determined as 0.11 ppm; the “EC50 value, Efflux type multidrug resistant fungus strain 3” value worked out at 0.072 ppm; the “EC50 value, Wild-type fungus strain” value stood at 0.067 ppm.
For the compound `Cc1cccc(N(C)C(=S)Oc2ccc3ccccc3c2)c1` [Tolnaftate], in experiment [1], the EC50 value ratio is >19; the “EC50 value, Efflux type multidrug resistant fungus strain” value is on record as >10 ppm; the “EC50 value, Wild-type fungus strain” value is on record as 0.51 ppm. The EC50 value ratio in experiment [1] (listed as tolnaftate) is reported as 19. Also, in experiment [2], the “EC50 value ratio 1” value is >4.5; the “EC50 value ratio 2” value was >4.5; the “EC50 value ratio 3” value is >4.5; the “EC50 value, Efflux type multidrug resistant fungus strain 1” value was >10 ppm. Also, in experiment [2], the “EC50 value, Efflux type multidrug resistant fungus strain 2” value is reported as >10 ppm; the “EC50 value, Efflux type multidrug resistant fungus strain 3” value is listed as >10 ppm; the “EC50 value, Wild-type fungus strain” value is listed as 2.2 ppm. For the same compound, in experiment [2] (listed as tolnaftate), the “EC50 value ratio 1” value was “more than 4.5”, the “EC50 value ratio 2” value is reported as “more than 4.5” and the “EC50 value ratio 3” value is reported as “more than 4.5”.
On to `N#Cc1c[nH]cc1-c1cccc2c1OC(F)(F)O2` [Fludioxonil], for which, in experiment [2], the “EC50 value ratio 1” value turned out to be 23; the “EC50 value ratio 2” value came out at 14; the “EC50 value ratio 3” value is on record as 43; the “EC50 value, Efflux type multidrug resistant fungus strain 1” value came to 0.19 ppm. Also, in experiment [2], the “EC50 value, Efflux type multidrug resistant fungus strain 2” value is reported as 0.12 ppm; the “EC50 value, Efflux type multidrug resistant fungus strain 3” value stood at 0.36 ppm; the “EC50 value, Wild-type fungus strain” value is listed as 0.0085 ppm.

(Values after US20210127675A1, “METHOD FOR C[…]-TYPE MULTIDRUG RESISTANT PLANT DISEASES” (priority 2017, published 2021).)
